Experimental data from patent US11236085B2, “PD-1/PD-L1 inhibitors” (Gilead Sciences, Inc., priority 2018, dated 2022).

Legend:
PD-1/PD-L1 [1] = target: T1, PD-1/PD-L1 (Homo sapiens, UniProt Q9NZQ7); assay: PD-1/PD-L1 biochemical protein-protein interaction assay (ALPHA); format: binding; conditions: 0.3 nM His tagged PD-L1, 2.5 nM biotinylated Fc-PD-1; 60 minutes at 25° C.; read-out: IC50 PD-L1-PD1
Protocol: PD-1/PD-L1 & CTLA/CD80 Biochemical Protein-Protein Interaction Assay
Compounds were tested in biochemical protein-protein interaction assays to determine if they can specifically block the interaction between the extracellular domains of PD-1/PD-L1 or CTLA/CD80. Binding of the protein pairs is measured using a bead based Amplified Luminescent Proximity Homogeneous Assay (ALPHA) platform. Binding of each protein pair results in proximity of the donor and acceptor beads which leads to an increase in ALPHA signal. Disruption of the protein-protein interaction with a test compound results in a decrease in ALPHA signal. Assays are performed in 25 mM Hepes (pH 7.4), 150 mM NaCl, 3.4 mM EDTA, 0.005% Tween 20, and 0.01% BSA. Final protein concentration in the assays were 0.3 nM (His tagged PD-L1), 2.5 nM (biotinylated Fc-PD-1), 1 nM (His tagged CTLA4) and 1 nM (biotinylated CD80). After an assay reaction time of 60 minutes at 25° C., binding was measured with addition of 20 μg/mL ALPHA assay acceptor beads (anti-His coated) and 20 µg/mL ALPHA assay donor beads (streptavidin coated). IC50 values were calculated from the fit of the dose-response curves to a four-parameter equation. Representative data are shown below in Table 3.
Target sequence in this assay (Q9NZQ7 19-238 limits assumed): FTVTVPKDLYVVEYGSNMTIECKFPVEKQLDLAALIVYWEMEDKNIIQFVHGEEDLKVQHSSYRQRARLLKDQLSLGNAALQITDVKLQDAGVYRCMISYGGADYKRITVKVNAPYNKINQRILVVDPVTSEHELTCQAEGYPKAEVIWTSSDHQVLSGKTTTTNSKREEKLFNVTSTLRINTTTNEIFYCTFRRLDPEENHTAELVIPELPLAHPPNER

PD-L1 = target: T2, PD-L1 (Homo sapiens, UniProt Q9NZQ7); assay: PD-L1/PD-L1 dimerization biochemical protein-protein interaction assay (ALPHA); conditions: 0.5 nM His tagged PD-L1 and 0.5 nM FLAG tagged PD-L1; compound induced dimerization; read-out: AC50 PDL1 Dimer 1 nM
T2 construct: determine if they can specifically dimerize the extracellular domains of PD-L1
T2 sequence (Q9NZQ7 19-238 limits assumed): as above
T2 sequence (Q9NZQ7 19-238 limits assumed): as above
Protocol: PD-L1/PD-L1 Dimerization Biochemical Protein-Protein Interaction Assay
Compounds were tested in biochemical protein-protein interaction assays to determine if they can specifically dimerize the extracellular domains of PD-L1. Dimerization of the proteins (His-tagged PD-L1 and FLAG-tagged PD-L1) is measured using a bead based Amplified Luminescent Proximity Homogeneous Assay (ALPHA) platform. […] Assays are performed in 25 mM Hepes (pH 7.4), 150 mM NaCl, 3.4 mM EDTA, 0.005% Tween 20, and 0.01% BSA. Final protein concentration in the assays were 0.5 nM (His tagged PD-L1) and 0.5 nM (FLAG tagged PD-L1). After an assay reaction time of 2 hours at 25° C., 20 μg/mL (final assay concentration) ALPHA assay acceptor beads (anti-His coated) were added and incubated for 60 minutes at 25° C. Binding was measured following a final 60 minute incubation with 40 μg/mL (final assay concentration) ALPHA assay donor beads (anti-FLAG coated). AC50 values were calculated from the fit of the dose-response curves to a four-parameter equation (Table 4).

PD-1/PD-L1 [2] = target: T1, PD-1/PD-L1; assay: PD-1/PD-L1 NFAT reporter assay (co-culture of aAPC-PD-L1 CHO cells and Jurkat cells overexpressing PD-1, NFAT luciferase); format: cell-based; set-up: expressed in transfected cells; host or cells: CHO cells (aAPC-PD-L1) co-cultured with Jurkat cells overexpressing PD-1; conditions: co-culture incubated for 6 hrs at 37° C.; luciferase under NFAT control
Protocol: PD-1/PD-L1 NFAT Reporter Assay
Compounds were tested in a functional co-culture reporter assay in which TCR-mediated NFAT activity is inhibited by the engagement of PD-1 with PD-L1. […] CHO cells expressing surface-bound anti-CD3 antibodies and PD-L1 (artificial antigen presenting cells, aAPC-PD-L1) were first seeded overnight. Jurkat cells overexpressing PD-1 and expressing a luciferase construct under NFAT control are diluted in RPMI assay medium (RPMI 1640 with 2% FBS), mixed with compounds, and immediately seeded on the monolayer of aAPC-PD-L1. The co-culture is then incubated for 6 hrs at 37° C. Luciferase activity is assessed by adding the ONE-Glo reagent and measuring luminescence with a plate reader. EC50 values are calculated from the fit of the dose-response curves to a four-parameter equation (Table 4).
Target sequence in this assay (Q9NZQ7 19-290): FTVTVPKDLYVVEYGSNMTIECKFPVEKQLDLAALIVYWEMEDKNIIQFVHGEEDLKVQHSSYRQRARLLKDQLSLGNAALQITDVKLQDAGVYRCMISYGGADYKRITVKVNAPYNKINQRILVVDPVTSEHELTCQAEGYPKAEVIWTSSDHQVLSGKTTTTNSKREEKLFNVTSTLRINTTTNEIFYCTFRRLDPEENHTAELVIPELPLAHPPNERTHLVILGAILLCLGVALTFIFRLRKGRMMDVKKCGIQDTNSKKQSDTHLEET

| Compound | IC50 (PD-1/PD-L1 [1]) [nM] | AC50 (PD-L1) [nM] | EC50 (PD-1/PD-L1 [2]) [nM] |
| --- | --- | --- | --- |
| C[C@](CO)(NCc1cc(Br)c(OCc2cccc(-c3cccc(-c4ccc5c(c4)CNCC5)c3Cl)c2Cl)nc1OCc1cncc(C#N)c1)C(=O)O [Compound 21] | 0.23 | 28.3 | 166 |
| COc1nc(-c2cccc(-c3cccc(-c4cc5c(cn4)CNC5)c3Cl)c2Cl)ccc1CNC[C@@H]1CCC(=O)N1 [Compound 23] | 0.318 | 272 | 202 |
| Cc1c(COc2cc(OCc3cc(C#N)cc(C#N)c3)c(CN[C@@](C)(CO)C(=O)O)cc2Cl)cccc1-c1cccc(-c2ccc3c(c2)CNCC3)c1C [Compound 8] | 0.293 | 42.9 | 90 |
| COc1nc(-c2cccc(-c3cccc(-c4ccc5c(c4)OCCNC5)c3Cl)c2Cl)ccc1CNC[C@@H](O)CC(=O)O [Compound 6] | 0.427 | 301 | 170 |
| Cc1c(COc2cc(OCc3cncc(C#N)c3)c(CN[C@@](C)(CO)C(=O)O)cc2Cl)cccc1-c1cccc(-c2ccc3c(c2)NC(=O)CNC3)c1C [Compound 10] | 0.187 | 249 | 103 |
| Cc1c(COc2cc(OCc3cncc(C#N)c3)c(CNC[C@@H](O)CC(=O)O)cc2Cl)cccc1-c1cccc(-c2ccc3c(c2)CNCC3NC(=O)NC2CC2)c1C (stereo partly drawn) [Compound 13] | 0.147 | 26.9 | 90 |
| C[C@@](CO)(NCc1cc(Br)c(OCc2cccc(-c3cccc(-c4ccc5c(c4)CNCC5)c3Cl)c2Cl)nc1OCc1cncc(C#N)c1)C(=O)O [Compound 22] | 0.151 | 37.7 | 87 |
| COc1nc(-c2cccc(-c3cccc(-c4cc5c(s4)CCNC5)c3Cl)c2Cl)ccc1CNC[C@@H]1CCC(=O)N1 [Compound 33] | 1.04 | 145 | 170 |
| C[C@@](CO)(NCc1cc(Cl)c(OCc2cccc(-c3cccc(-c4ccc5c(c4)CNCC5)c3Cl)c2Cl)nc1OCc1cc(C#N)cc(C#N)c1)C(=O)O [Compound 28] | 0.367 | 39.7 | 161 |
| COc1nc(-c2cccc(-c3cccc(-c4nc5c(s4)CNCC5)c3Cl)c2Cl)ccc1CNC[C@@H]1CCC(=O)N1 [Compound 35] | 0.814 | 281 | 105 |
| Cc1c(COc2cc(OCc3cncc(C#N)c3)c(CNC[C@@H](O)CC(=O)O)cc2Cl)cccc1-c1cccc(-c2ccc3c(c2)CNCC3NC(=O)NCC#N)c1C (stereo partly drawn) [Compound 17] | 0.174 | 31.6 | 128 |
| COc1nc(-c2cccc(-c3cccc(-c4nc5c(s4)CCNC5)c3Cl)c2Cl)ccc1CNC[C@@H]1CCC(=O)N1 [Compound 36] | 0.588 | 256 | 142 |
| Cc1c(COc2cc(OCc3cncc(C#N)c3)c(CN[C@@](C)(CO)C(=O)O)cc2Cl)cccc1-c1cccc(-c2ccc3c(c2)CNCC3N)c1C (stereo partly drawn) [Compound 18] | 0.158 | 54.9 | 73 |
| COc1nc(-c2cccc(-c3cccc(-c4nc5n(n4)CCNC5)c3Cl)c2Cl)ccc1CNC[C@@H]1CCC(=O)N1 [Compound 30] | 0.247 | 690 | 148 |
| C[C@](CO)(NCc1cc(Cl)c(OCc2cccc(-c3cccc(-c4ccc5c(c4)CNCC5)c3Cl)c2Cl)nc1OCc1cncc(C#N)c1)C(=O)O [Compound 29] | 0.368 | 31.5 | 200 |
| COc1nc(-c2cccc(-c3cccc(-c4cc5c(s4)CNCC5)c3Cl)c2Cl)ccc1CNC[C@@H]1CCC(=O)N1 [Compound 34] | 1.13 | 174 | 163 |
| COc1nc(-c2cccc(-c3cccc(-c4nc5c(s4)CNCC5)c3Cl)c2Cl)ccc1CNCCO [Compound 31] | 0.431 | 314 | 674 |
| Cc1c(COc2cc(OCc3cncc(C#N)c3)c(CNC[C@@H](O)CC(=O)O)cc2Cl)cccc1-c1cccc(-c2ccc3c(c2)NC(=O)CNC3)c1C [Compound 11] | 0.686 | 599 | 178 |
| CNC(=O)NC1CNCc2cc(-c3cccc(-c4cccc(-c5ccc(CNC[C@@H]6CCC(=O)N6)c(OC)n5)c4Cl)c3Cl)ccc21 (stereo partly drawn) [Compound 12] | 0.17 | 55.3 | 165 |
| COc1nc(-c2cccc(-c3cccc(-c4cc5c(s4)CCNC5)c3Cl)c2Cl)ccc1CN1CC2(CCC(=O)N2)C1 [Compound 32] | 1.14 | 181 | 288 |

Stronger by IC50 (PD-1/PD-L1 [1]), values ahead:

| IC50 (PD-1/PD-L1 [1]) [nM] | AC50 (PD-L1) [nM] | EC50 (PD-1/PD-L1 [2]) [nM] | Compound |
| --- | --- | --- | --- |
| 0.136 | 57 | 134 | Cc1c(COc2cc(OCc3cncc(C#N)c3)c(CN[C@@](C)(CO)C(=O)O)cc2Cl)cccc1-c1cccc(-c2ccc3c(c2)CNCC3)c1C [Compound 5] |
| 0.126 | 63.8 | 173 | Cc1c(COc2cc(OCCCC#N)c(CN[C@@](C)(CO)C(=O)O)cc2Cl)cccc1-c1cccc(-c2ccc3c(c2)CNCC3)c1C [Compound 9] |
| 0.09 | 30.9 | 102 | Cc1c(COc2cc(OCc3cncc(C#N)c3)c(CN[C@@](C)(CO)C(=O)O)cc2Cl)cccc1-c1cccc(-c2ccc3c(c2)CNCC3NC(=O)NCC#N)c1C (stereo partly drawn) [Compound 16] |
| 0.086 | 41.3 | 184 | Cc1c(COc2cc(OCc3cncc(C#N)c3)c(CN[C@@](C)(CO)C(=O)O)cc2Cl)cccc1-c1cccc(-c2ccc3c(c2)C2CCC(C3)N2)c1C (stereo partly drawn) [Compound 24] |
| 0.064 | 135 | 1260 | COc1nc(O[C@H]2CCc3c(-c4cccc(-c5ccc6c(n5)CCNC6)c4Cl)cccc32)c(C(F)(F)F)cc1CN1CC[C@@H](C(=O)O)C1 [Compound 1, (R)-1-((6-(((S)-4-(2-chloro-3-(5,6,7,8-tetrahydro-1,6-naphthyridin-2-yl)phenyl)-2,3-dihydro-1H-inden-1-yl)oxy)-2-methoxy-5-(trifluoromethyl)pyridin-3-yl)methyl)pyrrolidine-3-carboxylic acid] |
| 0.064 | 48.9 | 174 | CC(=O)NCC1Cc2ccc(-c3cccc(-c4cccc(COc5cc(OCc6cncc(C#N)c6)c(CN[C@@](C)(CO)C(=O)O)cc5Cl)c4C)c3C)cc2CN1 (stereo partly drawn) [Compound 26] |
| 0.064 | 86.5 | 90 | Cc1c(COc2cc(OCc3cncc(C#N)c3)c(CN[C@@](C)(CO)C(=O)O)cc2Cl)cccc1-c1cccc(-c2ccc3c(c2)NCCNC3)c1C [Compound 4] |
| 0.064 | 76.9 | 123 | Cc1c(COc2cc(OCc3cncc(C#N)c3)c(CN[C@@](C)(CO)C(=O)O)cc2Cl)cccc1-c1cccc(-c2ccc3c(c2)CNCC3O)c1C (stereo partly drawn) [Compound 3] |
| 0.064 | 23 | 3250 | COc1nc(O[C@H]2CCc3c(-c4cccc(-c5nc6c(s5)CCNC6)c4Cl)cccc32)c(C(F)(F)F)cc1CN1CC[C@@H](C(=O)O)C1 [Compound 2, (R)-1-((6-(((S)-4-(2-chloro-3-(4,5,6,7-tetrahydrothiazolo[4,5-c]pyridin-2-yl)phenyl)-2,3-dihydro-1H-inden-1-yl)oxy)-2-methoxy-5-(trifluoromethyl)pyridin-3-yl)methyl)pyrrolidine-3-carboxylic acid] |
| 0.064 | 20.8 | 95 | CNC(=O)NC1CNCc2cc(-c3cccc(-c4cccc(COc5cc(OCc6cncc(C#N)c6)c(CNC[C@@H](O)CC(=O)O)cc5Cl)c4C)c3C)ccc21 (stereo partly drawn) [Compound 20] |
